ChEMBL document CHEMBL3045446, “In vitro antimicrobial and antimycobacterial activity of some chalcones and their derivatives” (2013)
≈ marks a conversion by molar mass, not a printed value.

Columns and labels:
Assay type in all cases: functional
Proteus vulgaris [1] = experiment: Antimicrobial activity against Proteus vulgaris MTCC 1771 assessed as growth inhibition after 24 hr by agar streak dilution method; settings: MTCC 1771, 24 h
Pseudomonas aeruginosa [2] = experiment: Antimicrobial activity against Pseudomonas aeruginosa MTCC 741 assessed as growth inhibition after 24 hr by agar streak dilution method; settings: MTCC 741, 24 h
Bacillus cereus [3] = experiment: Antimicrobial activity against Bacillus cereus MTCC 430 assessed as diameter of growth inhibition zone after 24 hr
Aspergillus fumigatus [4] = experiment: Antimicrobial activity against Aspergillus fumigatus MTCC 343 assessed as growth inhibition after 48 hr by agar streak dilution method; settings: MTCC 343, 48 h
Salmonella typhi [5] = experiment: Antimicrobial activity against Salmonella enterica subsp. enterica serovar Typhi MTCC 733 assessed as diameter of growth inhibition zone after 24 hr
Proteus vulgaris [6] = experiment: Antimicrobial activity against Proteus vulgaris MTCC 1771 assessed as diameter of growth inhibition zone after 24 hr
Klebsiella pneumoniae [7] = experiment: Antimicrobial activity against Klebsiella pneumoniae MTCC 109 assessed as growth inhibition after 24 hr by agar streak dilution method; settings: MTCC 109, 24 h
Aspergillus clavatus [8] = experiment: Antimicrobial activity against Aspergillus clavatus MTCC 1323 assessed as diameter of growth inhibition zone after 48 hr
Salmonella typhi [9] = experiment: Antimicrobial activity against Salmonella enterica subsp. enterica serovar Typhi MTCC 733 assessed as growth inhibition after 24 hr by agar streak dilution method; settings: MTCC 733, 24 h
Staphylococcus aureus [10] = experiment: Antimicrobial activity against Staphylococcus aureus MTCC 96 assessed as diameter of growth inhibition zone after 24 hr
Candida albicans [11] = experiment: Antimicrobial activity against Candida albicans MTCC 183 assessed as diameter of growth inhibition zone after 48 hr
Escherichia coli [12] = experiment: Antimicrobial activity against Escherichia coli MTCC 739 assessed as growth inhibition after 24 hr by agar streak dilution method; settings: MTCC 739, 24 h
[13] = system: Mycobacterium tuberculosis; experiment: Antituberculosis activity against Mycobacterium tuberculosis H37Rv assessed as growth inhibition after 12 to 28 days by L-J MIC method; settings: for MIC: Mycobacterium tuberculosis, H37Rv
Aspergillus clavatus [14] = experiment: Antimicrobial activity against Aspergillus clavatus MTCC 1323 assessed as growth inhibition after 48 hr by agar streak dilution method; settings: MTCC 1323, 48 h
Klebsiella pneumoniae [15] = experiment: Antimicrobial activity against Klebsiella pneumoniae MTCC 109 assessed as diameter of growth inhibition zone after 24 hr
Aspergillus niger [16] = experiment: Antimicrobial activity against Aspergillus niger MTCC 282 assessed as diameter of growth inhibition zone after 48 hr
Bacillus cereus [17] = experiment: Antimicrobial activity against Bacillus cereus MTCC 430 assessed as growth inhibition after 24 hr by agar streak dilution method; settings: MTCC 430, 24 h
Pseudomonas aeruginosa [18] = experiment: Antimicrobial activity against Pseudomonas aeruginosa MTCC 741 assessed as diameter of growth inhibition zone after 24 hr
Escherichia coli [19] = experiment: Antimicrobial activity against Escherichia coli MTCC 739 assessed as diameter of growth inhibition zone after 24 hr
Candida albicans [20] = experiment: Antimicrobial activity against Candida albicans MTCC 183 assessed as growth inhibition after 48 hr by agar streak dilution method; settings: MTCC 183, 48 h
Shigella flexneri [21] = experiment: Antimicrobial activity against Shigella flexneri MTCC1457 assessed as growth inhibition after 24 hr by agar streak dilution method; settings: MTCC1457, 24 h
Shigella flexneri [22] = experiment: Antimicrobial activity against Shigella flexneri MTCC1457 assessed as diameter of growth inhibition zone after 24 hr
Aspergillus niger [23] = experiment: Antimicrobial activity against Aspergillus niger MTCC 282 assessed as growth inhibition after 48 hr by agar streak dilution method; settings: MTCC 282, 48 h
Staphylococcus aureus [24] = experiment: Antimicrobial activity against Staphylococcus aureus MTCC 96 assessed as growth inhibition after 24 hr by agar streak dilution method; settings: MTCC 96, 24 h
Aspergillus fumigatus [25] = experiment: Antimicrobial activity against Aspergillus fumigatus MTCC 343 assessed as diameter of growth inhibition zone after 48 hr

Row | SMILES | MIC (Proteus vulgaris [1]) | MIC (Pseudomonas aeruginosa [2]) | diameter of the inhibition zone (DIZ) (Bacillus cereus [3]) | MIC (Aspergillus fumigatus [4]) | diameter of the inhibition zone (DIZ) (Salmonella typhi [5]) | diameter of the inhibition zone (DIZ) (Proteus vulgaris [6]) | MIC (Klebsiella pneumoniae [7]) | diameter of the inhibition zone (DIZ) (Aspergillus clavatus [8]) | MIC (Salmonella typhi [9]) | diameter of the inhibition zone (DIZ) (Staphylococcus aureus [10]) | diameter of the inhibition zone (DIZ) (Candida albicans [11]) | MIC (Escherichia coli [12]) | growth inhibition (GI) [13] | MIC [13] | MIC (Aspergillus clavatus [14]) | diameter of the inhibition zone (DIZ) (Klebsiella pneumoniae [15]) | diameter of the inhibition zone (DIZ) (Aspergillus niger [16]) | MIC (Bacillus cereus [17]) | diameter of the inhibition zone (DIZ) (Pseudomonas aeruginosa [18]) | diameter of the inhibition zone (DIZ) (Escherichia coli [19]) | also measured
1 | Cc1ccc(/C=C/C(=O)c2ccc(Nc3cc(=O)oc4ccccc34)cc2)cc1 | 50 mg/L (≈ 131 µM) | 100 mg/L (≈ 262 µM) | 15 mm | 100 mg/L (≈ 262 µM) | 13 mm | 19 mm | 100 mg/L (≈ 262 µM) | <10 mm | 100 mg/L (≈ 262 µM) | 14 mm | 11 mm | 100 mg/L (≈ 262 µM) | 96% | 500 mg/L (≈ 1310 µM) | 100 mg/L (≈ 262 µM) | 10 mm | 14 mm | 100 mg/L (≈ 262 µM) | 15 mm | <10 mm | MIC (Candida albicans [20]): 100 mg/L (≈ 262 µM); MIC (Shigella flexneri [21]): 50 mg/L (≈ 131 µM); diameter of the inhibition zone (DIZ) (Shigella flexneri [22]): 18 mm; MIC (Aspergillus niger [23]): 100 mg/L (≈ 262 µM); MIC (Staphylococcus aureus [24]): 100 mg/L (≈ 262 µM); diameter of the inhibition zone (DIZ) (Aspergillus fumigatus [25]): 13 mm
2 | COc1ccc(C2CC(c3ccc(Nc4cc(=O)oc5ccccc45)cc3)=NN2C(C)=O)cc1 (stereo not drawn) | 50 mg/L (≈ 110 µM) | 50 mg/L (≈ 110 µM) | 15 mm | 50 mg/L (≈ 110 µM) | 17 mm | 20 mm | 100 mg/L (≈ 221 µM) | 20 mm | 100 mg/L (≈ 221 µM) | 16 mm | 19 mm | 50 mg/L (≈ 110 µM) | 99% | 100 mg/L (≈ 221 µM) | 25 mg/L (≈ 55.1 µM) | 17 mm | 21 mm | 100 mg/L (≈ 221 µM) | 18 mm | 19 mm | MIC (Candida albicans [20]): 50 mg/L (≈ 110 µM); MIC (Shigella flexneri [21]): 100 mg/L (≈ 221 µM); diameter of the inhibition zone (DIZ) (Shigella flexneri [22]): 16 mm; MIC (Aspergillus niger [23]): 25 mg/L (≈ 55.1 µM); MIC (Staphylococcus aureus [24]): 100 mg/L (≈ 221 µM); diameter of the inhibition zone (DIZ) (Aspergillus fumigatus [25]): 18 mm
3 | CC(=O)N1N=C(c2ccc(Nc3cc(=O)oc4ccccc34)cc2)CC1c1ccc([N+](=O)[O-])cc1 (stereo not drawn) | 100 mg/L (≈ 213 µM) | 100 mg/L (≈ 213 µM) | 11 mm | 100 mg/L (≈ 213 µM) | 17 mm | <10 mm | 100 mg/L (≈ 213 µM) | 17 mm | 100 mg/L (≈ 213 µM) | 12 mm | 15 mm | 100 mg/L (≈ 213 µM) | 96% | 500 mg/L (≈ 1070 µM) | 50 mg/L (≈ 107 µM) | 13 mm | 14 mm | 100 mg/L (≈ 213 µM) | 11 mm | 14 mm | MIC (Candida albicans [20]): 100 mg/L (≈ 213 µM); MIC (Shigella flexneri [21]): 100 mg/L (≈ 213 µM); diameter of the inhibition zone (DIZ) (Shigella flexneri [22]): 13 mm; MIC (Aspergillus niger [23]): 100 mg/L (≈ 213 µM); MIC (Staphylococcus aureus [24]): 100 mg/L (≈ 213 µM); diameter of the inhibition zone (DIZ) (Aspergillus fumigatus [25]): 13 mm
4 | N#Cc1c(-c2ccc(O)cc2O)cc(-c2ccc(Nc3cc(=O)oc4ccccc34)cc2)nc1N | 12.5 mg/L (≈ 27 µM) | 6.25 mg/L (≈ 13.5 µM) | 26 mm | 6.25 mg/L (≈ 13.5 µM) | 28 mm | 23 mm | 3.12 mg/L (≈ 6.75 µM) | 27 mm | 3.12 mg/L (≈ 6.75 µM) | 22 mm | 23 mm | 12.5 mg/L (≈ 27 µM) | 97% | 100 mg/L (≈ 216 µM) | 6.25 mg/L (≈ 13.5 µM) | 30 mm | 22 mm | 6.25 mg/L (≈ 13.5 µM) | 27 mm | 24 mm | MIC (Candida albicans [20]): 12.5 mg/L (≈ 27 µM); MIC (Shigella flexneri [21]): 6.25 mg/L (≈ 13.5 µM); diameter of the inhibition zone (DIZ) (Shigella flexneri [22]): 26 mm; MIC (Aspergillus niger [23]): 12.5 mg/L (≈ 27 µM); MIC (Staphylococcus aureus [24]): 12.5 mg/L (≈ 27 µM); diameter of the inhibition zone (DIZ) (Aspergillus fumigatus [25]): 25 mm
5 | N#Cc1c(-c2ccc(Cl)cc2Cl)cc(-c2ccc(Nc3cc(=O)oc4ccccc34)cc2)nc1N | 3.12 mg/L (≈ 6.25 µM) | 6.25 mg/L (≈ 12.5 µM) | 26 mm | 12.5 mg/L (≈ 25 µM) | 24 mm | 28 mm | 12.5 mg/L (≈ 25 µM) | 22 mm | 12.5 mg/L (≈ 25 µM) | 28 mm | 23 mm | 12.5 mg/L (≈ 25 µM) | 99% | 25 mg/L (≈ 50.1 µM) | 25 mg/L (≈ 50.1 µM) | 23 mm | 22 mm | 6.25 mg/L (≈ 12.5 µM) | 25 mm | 20 mm | MIC (Candida albicans [20]): 12.5 mg/L (≈ 25 µM); MIC (Shigella flexneri [21]): 12.5 mg/L (≈ 25 µM); diameter of the inhibition zone (DIZ) (Shigella flexneri [22]): 23 mm; MIC (Aspergillus niger [23]): 12.5 mg/L (≈ 25 µM); MIC (Staphylococcus aureus [24]): 3.12 mg/L (≈ 6.25 µM); diameter of the inhibition zone (DIZ) (Aspergillus fumigatus [25]): 23 mm
6 | N#Cc1c(-c2ccccc2Br)cc(-c2ccc(Nc3cc(=O)oc4ccccc34)cc2)nc1N | 25 mg/L (≈ 49.1 µM) | 50 mg/L (≈ 98.2 µM) | 20 mm | 12.5 mg/L (≈ 24.5 µM) | 22 mm | 20 mm | 12.5 mg/L (≈ 24.5 µM) | 19 mm | 25 mg/L (≈ 49.1 µM) | 23 mm | 24 mm | 50 mg/L (≈ 98.2 µM) | 98% | 100 mg/L (≈ 196 µM) | 25 mg/L (≈ 49.1 µM) | 23 mm | 22 mm | 25 mg/L (≈ 49.1 µM) | 19 mm | 18 mm | MIC (Candida albicans [20]): 25 mg/L (≈ 49.1 µM); MIC (Shigella flexneri [21]): 12.5 mg/L (≈ 24.5 µM); diameter of the inhibition zone (DIZ) (Shigella flexneri [22]): 22 mm; MIC (Aspergillus niger [23]): 25 mg/L (≈ 49.1 µM); MIC (Staphylococcus aureus [24]): 25 mg/L (≈ 49.1 µM); diameter of the inhibition zone (DIZ) (Aspergillus fumigatus [25]): 22 mm
7 | CC(=O)N1N=C(c2ccc(Nc3cc(=O)oc4ccccc34)cc2)CC1c1ccccc1 (stereo not drawn) | 100 mg/L (≈ 236 µM) | 100 mg/L (≈ 236 µM) | 13 mm | 100 mg/L (≈ 236 µM) | 13 mm | 13 mm | 100 mg/L (≈ 236 µM) | 16 mm | 100 mg/L (≈ 236 µM) | <10 mm | 12 mm | 100 mg/L (≈ 236 µM) | 95% | 1000 mg/L (≈ 2360 µM) | 100 mg/L (≈ 236 µM) | 11 mm | <10 mm | 100 mg/L (≈ 236 µM) | 10 mm | <10 mm | MIC (Candida albicans [20]): 100 mg/L (≈ 236 µM); MIC (Shigella flexneri [21]): 100 mg/L (≈ 236 µM); diameter of the inhibition zone (DIZ) (Shigella flexneri [22]): <10 mm; MIC (Aspergillus niger [23]): 100 mg/L (≈ 236 µM); MIC (Staphylococcus aureus [24]): 100 mg/L (≈ 236 µM); diameter of the inhibition zone (DIZ) (Aspergillus fumigatus [25]): 13 mm
8 | CC(=O)N1N=C(c2ccc(Nc3cc(=O)oc4ccccc34)cc2)CC1c1ccc(Cl)cc1 (stereo not drawn) | 50 mg/L (≈ 109 µM) | 100 mg/L (≈ 218 µM) | 17 mm | 50 mg/L (≈ 109 µM) | 18 mm | 19 mm | 50 mg/L (≈ 109 µM) | 15 mm | 50 mg/L (≈ 109 µM) | 19 mm | 19 mm | 100 mg/L (≈ 218 µM) | 97% | 250 mg/L (≈ 546 µM) | 100 mg/L (≈ 218 µM) | 21 mm | 16 mm | 100 mg/L (≈ 218 µM) | 14 mm | 15 mm | MIC (Candida albicans [20]): 50 mg/L (≈ 109 µM); MIC (Shigella flexneri [21]): 50 mg/L (≈ 109 µM); diameter of the inhibition zone (DIZ) (Shigella flexneri [22]): 20 mm; MIC (Aspergillus niger [23]): 100 mg/L (≈ 218 µM); MIC (Staphylococcus aureus [24]): 50 mg/L (≈ 109 µM); diameter of the inhibition zone (DIZ) (Aspergillus fumigatus [25]): 17 mm
